# Experiments:
# [1] = tested on: HBV viral load in AD38 cells; experiment: Viral load production in AD38 cells, quantitative PCR of the core sequence in supernatant; type: cell-based; conditions: 10 μM compound, 6 days at 37° C., supernatant qPCR, relative to DMSO control; for activity at 10 µM: Hepatitis B virus, 144 h, read-out: AD38 Viral Load (%) (VL with cmpd/VL in DMSO control) at 10 μM
# [2] = tested on: AD38 cells; experiment: Viability of AD38 cells (Promega CellTiter-Glo); type: cell-based; conditions: 10 μM compound, 6 days, CellTiter-Glo luminescence normalized to DMSO control (100%)
# In short: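 AD38 cells were seeded at 50,000/well on collagen-coated plates and treated with compound added as a 10× solution in 10% DMSO for 6 days at 37° C. Viability was measured by CellTiter-Glo luminescence in tetracycline-free medium with 2% FBS and 1% DMSO, and expressed as percent of DMSO control.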
structure (smiles),measurement,setting,value
"CN(C)CCOc1ncc(CNC(=O)c2ccc3c(c2)NC(=O)c2ccccc2S3(=O)=O)s1 [compound 1586, N-((2-(2-(dimethylamino)ethoxy)thiazol-5-yl)methyl)-11-oxo-10, 11-dihydrodibenzo [b, f] [1, 4] thiazepine-8-carboxamide 5,5-dioxide]",activity at 10 µM,[1],27.9%
same,AD38 Viability Normalized Result (cmpd/DMSO %) at 10 μM,[2],83%
O=C(NCc1cnc(N2CCOCC2)s1)c1ccc2c(c1)NC(=O)c1ccccc1O2 [compound 1611],activity at 10 µM,[1],1.4%
same,AD38 Viability Normalized Result (cmpd/DMSO %) at 10 μM,[2],100%
Cc1c(C(=O)NCc2cnc(-c3cc[nH]n3)s2)ccc2c1NC(=O)c1ccccc1S2(=O)=O [compound 11152],activity at 10 µM,[1],1.6%
same,AD38 Viability Normalized Result (cmpd/DMSO %) at 10 μM,[2],96%
O=C1CCc2cc(-c3ncc(CNC(=O)c4ccc5c(c4)NC(=O)c4ccccc4S5(=O)=O)s3)ccc2N1 [compound 1951],activity at 10 µM,[1],1.8%
same,AD38 Viability Normalized Result (cmpd/DMSO %) at 10 μM,[2],101%
"CN(C)CCCS(=O)(=O)c1ccc(-c2ncc(CNC(=O)c3ccc4c(c3)NC(=O)c3ccccc3S4(=O)=O)s2)cc1.O=C(O)C(F)(F)F [compound 11033, N-((2-(4-((3-(dimethylamino)propyl)sulfonyl)phenyl)thiazol-5-yl)methyl)-11-oxo-10, 11-dihydrodibenzo [b, f] [1, 4] thiazepine-8-carboxamide 5,5-dioxide TFA salt]",activity at 10 µM,[1],17.1%
same,AD38 Viability Normalized Result (cmpd/DMSO %) at 10 μM,[2],95%
"O=C(NCc1cnc(-c2ccc(SCCCO)cc2)s1)c1ccc2c(c1)NC(=O)c1ccccc1S2(=O)=O [11063-A, N-((2-(4-((3-hydroxypropyl)thio)phenyl)thiazol-5-yl)methyl)-11-oxo-10, 11-dihydrodibenzo [b, f] [1, 4] thiazepine-8-carboxamide 5,5-dioxide]",activity at 10 µM,[1],0.4%
same,AD38 Viability Normalized Result (cmpd/DMSO %) at 10 μM,[2],104%
CN(C)c1ccc(-c2ncc(CNC(=O)c3ccc4c(c3)NC(=O)c3ccccc3O4)s2)cn1 [compound 1708],activity at 10 µM,[1],0.8%
same,AD38 Viability Normalized Result (cmpd/DMSO %) at 10 μM,[2],90%
CN(C)CCCCc1cnn(-c2ncc(CNC(=O)c3ccc4c(c3)NC(=O)c3ccccc3S4(=O)=O)s2)c1 [compound 11099],activity at 10 µM,[1],3.9%
same,AD38 Viability Normalized Result (cmpd/DMSO %) at 10 μM,[2],90%
"CC(C)(C)OC(=O)N1CCN(c2ccc(-c3ncc(CNC(=O)c4ccc5c(c4)NC(=O)c4ccccc4S5(=O)=O)s3)cn2)CC1 [11019-A, tert-butyl 4-(5-(5-((5,5-dioxido-11-oxo-10, 11-dihydrodibenzo [b, f] [1, 4]thiazepine-8-carboxamido)methyl)thiazol-2-yl)pyridin-2-yl) piperazine-1-carboxylate]",AD38 Viral Load (%) (VL with cmpd/VL in DMSO control) at 10 μM,[1],1.0%
same,AD38 Viability Normalized Result (cmpd/DMSO %) at 10 μM,[2],95%
CCc1cc2c(cc1C(=O)NCc1cnc(-c3ccc(C#N)cc3F)s1)NC(=O)c1ccccc1S2(=O)=O [compound 11042],activity at 10 µM,[1],0.8%
same,AD38 Viability Normalized Result (cmpd/DMSO %) at 10 μM,[2],109%
CCCN1c2ccc(C(=O)NCc3cnc(-c4ccc(C#N)cc4)s3)cc2NC(=O)c2ccccc21 [compound 1917],activity at 10 µM,[1],1.1%
same,AD38 Viability Normalized Result (cmpd/DMSO %) at 10 μM,[2],108%
"O=C(NCc1cnc(-c2ccc(OCCCN3CCC(C(=O)O)C3)cc2)s1)c1ccc2c(c1)NC(=O)c1ccccc1S2(=O)=O (centres unmarked) [compound 11107, 1-(3-(4-(5-((5,5-dioxido-11-oxo-10, 11-dihydrodibenzo [b, f] [1, 4]thiazepine-8-carboxamido)methyl)thiazol-2-yl)phenoxy)propyl) pyrrolidine-3-carboxylic acid]",activity at 10 µM,[1],6.4%
same,AD38 Viability Normalized Result (cmpd/DMSO %) at 10 μM,[2],96%
Cc1c(C(=O)NCc2cnc(-c3ccc(C#N)cc3F)s2)ccc2c1NC(=O)c1ccccc1S2(=O)=O [compound 1971],activity at 10 µM,[1],7%
same,AD38 Viability Normalized Result (cmpd/DMSO %) at 10 μM,[2],87%
N#Cc1ccc(-c2ncc(CNC(=O)c3ccc4c(c3)NC(=O)c3cccc(F)c3S4(=O)=O)s2)cc1 [compound 1904],activity at 10 µM,[1],0.5%
same,AD38 Viability Normalized Result (cmpd/DMSO %) at 10 μM,[2],89%
CC(C)(NC(=O)c1ccc2c(c1)NC(=O)c1ccccc1S2)c1cncs1 [compound 1549],activity at 10 µM,[1],106%
same,AD38 Viability Normalized Result (cmpd/DMSO %) at 10 μM,[2],105%
Cc1ncc(CNC(=O)c2ccc3c(=O)c4ccccc4c(=O)[nH]c3c2)s1 [compound 1592],activity at 10 µM,[1],1.3%
same,AD38 Viability Normalized Result (cmpd/DMSO %) at 10 μM,[2],99%
"Nc1ccc(-c2ncc(CNC(=O)c3ccc4c(c3)NC(=O)c3ccccc3O4)s2)cn1 [compound 1707, N-((2-(6-aminopyridin-3-yl)thiazol-5-yl)methyl)-11-oxo-10, 11-dihydrodibenzo [b, f] [1, 4] oxazepine-8-carboxamide]",activity at 10 µM,[1],10.7%
same,AD38 Viability Normalized Result (cmpd/DMSO %) at 10 μM,[2],88%
"O=C(NCc1cnc(-c2ccc(O)cn2)s1)c1ccc2c(c1)NC(=O)c1ccccc1S2(=O)=O [compound 1879, N-((2-(5-hydroxypyridin-2-yl)thiazol-5-yl)methyl)-11-oxo-10, 11-dihydrodibenzo [b, f] [1, 4] thiazepine-8-carboxamide 5,5-dioxide]",activity at 10 µM,[1],7.2%
same,AD38 Viability Normalized Result (cmpd/DMSO %) at 10 μM,[2],104%
O=C(NCc1cnc(-c2nccs2)s1)c1ccc2c(c1)NC(=O)c1ccccc1S2(=O)=O [compound 1882],activity at 10 µM,[1],1%
same,AD38 Viability Normalized Result (cmpd/DMSO %) at 10 μM,[2],103%
CC(=O)NCCCCc1ccc(-c2ncc(CNC(=O)c3ccc4c(c3)NC(=O)c3ccccc3S4(=O)=O)s2)cc1 [compound 11057],activity at 10 µM,[1],1%
same,AD38 Viability Normalized Result (cmpd/DMSO %) at 10 μM,[2],101%
"COc1ccc(-c2ncc(CNC(=O)c3ccc4c(c3)NC(=O)c3ccccc3O4)s2)cn1 [compound 1705, N-((2-(6-methoxypyridin-3-yl)thiazol-5-yl)methyl)-11-oxo-10, 11-dihydrodibenzo [b, f] [1, 4] oxazepine-8-carboxamide]",activity at 10 µM,[1],3.7%
same,AD38 Viability Normalized Result (cmpd/DMSO %) at 10 μM,[2],93%
O=C(NCc1cnc(-c2ccc(O)c(F)c2)s1)c1ccc2c(c1)NC(=O)c1ccccc1S2(=O)=O [compound 1664],activity at 10 µM,[1],0.6%
same,AD38 Viability Normalized Result (cmpd/DMSO %) at 10 μM,[2],99%
CN(C)CCOc1ccc(-c2ncc(CNC(=O)c3ccc4c(c3)NC(=O)c3ccccc3S4(=O)=O)s2)cc1 [compound 1584],activity at 10 µM,[1],1.4%
same,AD38 Viability Normalized Result (cmpd/DMSO %) at 10 μM,[2],101%
N#Cc1ccc(-c2ncc(CNC(=O)c3cc4c(cc3Cl)Oc3ccccc3C(=O)N4)s2)cc1 [compound 1913],activity at 10 µM,[1],68.1%
same,AD38 Viability Normalized Result (cmpd/DMSO %) at 10 μM,[2],111%
CCc1ncc(CNC(=O)c2ccc3c(c2)NC(=O)c2ccccc2S3(=O)=O)s1 [compound 1551],activity at 10 µM,[1],0.4%
same,AD38 Viability Normalized Result (cmpd/DMSO %) at 10 μM,[2],99%
"CC(C)(C)NCCCSc1ccc(-c2ncc(CNC(=O)c3ccc4c(c3)NC(=O)c3ccccc3S4(=O)=O)s2)cc1.O=C(O)C(F)(F)F [compound 11064, N-((2-(4-((3-(tert-butylamino)propyl)thio)phenyl)thiazol-5-yl)methyl)-11-oxo-10, 11-dihydrodibenzo [b, f] [1, 4] thiazepine-8-carboxamide 5,5-dioxide TFA salt]",activity at 10 µM,[1],4.1%
same,AD38 Viability Normalized Result (cmpd/DMSO %) at 10 μM,[2],85%
COc1ccc(-c2ncc(CNC(=O)c3ccc4c(c3)NC(=O)c3ccccc3S4(=O)=O)s2)nc1 [1879-A],activity at 10 µM,[1],2.5%
same,AD38 Viability Normalized Result (cmpd/DMSO %) at 10 μM,[2],121%
Cc1ncc(CNC(=O)c2ccc3c(c2)NC(=O)c2ccccc2C3C)s1 (centres unmarked) [compound 1548],activity at 10 µM,[1],0.4%
same,AD38 Viability Normalized Result (cmpd/DMSO %) at 10 μM,[2],97%
"N#Cc1cccc(-c2ncc(CNC(=O)c3ccc4c(c3)NC(=O)c3ccccc3S4(=O)=O)s2)c1 [1677-A, N-((2-(3-cyanophenyl)thiazol-5-yl)methyl)-11-oxo-10, 11-dihydrodibenzo [b, f] [1, 4] thiazepine-8-carboxamide 5,5-dioxide]",activity at 10 µM,[1],2.3%
same,AD38 Viability Normalized Result (cmpd/DMSO %) at 10 μM,[2],103%
CC(C)CN1c2ccc(C(=O)NCc3cnc(C(F)(F)F)s3)cc2NC(=O)c2ccccc21 [compound 11043],activity at 10 µM,[1],12%
same,AD38 Viability Normalized Result (cmpd/DMSO %) at 10 μM,[2],100%
CC(C)c1ncc(CNC(=O)c2ccc3c(c2)NC(=O)c2ccccc2S3(=O)=O)s1 [compound 1552],activity at 10 µM,[1],0.4%
same,AD38 Viability Normalized Result (cmpd/DMSO %) at 10 μM,[2],102%
"O=C(NCc1cnc(-c2ccc(O)nc2)s1)c1ccc2c(c1)NC(=O)c1ccccc1S2(=O)=O [compound 1669, N-((2-(6-hydroxypyridin-3-yl)thiazol-5-yl)methyl)-11-oxo-10, 11-dihydrodibenzo [b, f] [1, 4] thiazepine-8-carboxamide 5,5-dioxide]",activity at 10 µM,[1],13.1%
same,AD38 Viability Normalized Result (cmpd/DMSO %) at 10 μM,[2],104%
"CN1CCC[C@H]1COc1ccc(-c2ncc(CNC(=O)c3ccc4c(c3)NC(=O)c3ccccc3S4(=O)=O)s2)cc1 [compound 11135, (S)—N-((2-(4-((1-methylpyrrolidin-2-yl)methoxy)phenyl)thiazol-5-yl)methyl)-11-oxo-10,11-dihydrodibenzo [b, f] [1, 4] thiazepine-8-carboxamide 5,5-dioxide]",activity at 10 µM,[1],1.8%
same,AD38 Viability Normalized Result (cmpd/DMSO %) at 10 μM,[2],91%
"Cc1cc(-c2ncc(CNC(=O)c3ccc4c(c3)NC(=O)c3ccccc3O4)s2)ccc1O [compound 1736, N-((2-(4-hydroxy-3-methylphenyl)thiazol-5-yl)methyl)-11-oxo-10, 11-dihydrodibenzo [b, f] [1, 4] oxazepine-8-carboxamide]",activity at 10 µM,[1],6.8%
same,AD38 Viability Normalized Result (cmpd/DMSO %) at 10 μM,[2],94%

# Reference: patent US11814376B2, “Hepatitis b core protein modulators” (Assembly Biosciences, Inc., priority 2015, dated 2023)
